Source: patent US20240360082A1, “SUBSTITUTED PYRIDONE COMPOUNDS USEFUL TO TREAT ORTH[…]” (priority 2021, published 2024)

Target: influenza A virus minigenome (PB2, PB1, PA, NP proteins) (UniProt P04665)
Type: cell-based
Details: read-out: RNP_ Hubei B IC50

influenza A virus minigenome (PB2, PB1, PA, NP proteins), sequence (P04665 whole entry): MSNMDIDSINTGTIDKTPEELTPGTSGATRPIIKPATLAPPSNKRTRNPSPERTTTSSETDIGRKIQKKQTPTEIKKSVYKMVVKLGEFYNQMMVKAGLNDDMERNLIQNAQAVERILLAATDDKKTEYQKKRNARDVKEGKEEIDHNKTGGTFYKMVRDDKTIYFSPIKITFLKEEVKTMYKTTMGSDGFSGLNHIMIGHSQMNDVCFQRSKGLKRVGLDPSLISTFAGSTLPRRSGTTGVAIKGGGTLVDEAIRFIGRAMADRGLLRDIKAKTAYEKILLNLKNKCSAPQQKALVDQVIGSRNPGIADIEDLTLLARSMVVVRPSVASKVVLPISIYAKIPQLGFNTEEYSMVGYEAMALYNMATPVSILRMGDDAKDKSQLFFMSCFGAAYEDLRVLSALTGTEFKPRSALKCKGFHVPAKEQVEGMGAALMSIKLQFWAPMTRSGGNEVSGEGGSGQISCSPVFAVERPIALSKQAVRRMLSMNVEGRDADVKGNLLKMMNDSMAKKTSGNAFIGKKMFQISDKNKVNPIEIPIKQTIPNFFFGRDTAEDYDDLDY

| Structure (SMILES) | IC50 [µM] |
| --- | --- |
| COC[C@@H]1COC[C@H](COc2ccc(-c3cc(C(N)=O)c(=O)[nH]c3C(F)(F)F)cc2)O1 (single isomer, unassigned) [Example 400] | 5 to 10 |
| CC(C)OC[C@H]1COC[C@@H](COc2ccc(-c3cc(C(N)=O)c(=O)[nH]c3C(F)(F)F)cc2)O1 [Example 402, 5-(4-(((2S,6R)-6-(isopropoxymethyl)-1,4-dioxan-2-yl)methoxy)phenyl)-2-oxo-6-(trifluoromethyl)-1,2-dihydropyridine-3-carboxamide] | 5 to 10 |
| CC(C)(O)C1COCC(COc2ccc(-c3cc(C(N)=O)c(=O)[nH]c3C(F)(F)F)cc2)O1 (single isomer, unassigned) [Example 354, 5-(4-((6-(2-hydroxypropan-2-yl)-1,4-dioxan-2-yl)methoxy)phenyl)-2-oxo-6-(trifluoromethyl)-1,2-dihydropyridine-3-carboxamide] | 5 to 10 |
| COCC1OC(COc2ccc(-c3cc(C(N)=O)c(=O)[nH]c3C(F)(F)F)cc2)COC1C (single isomer, unassigned) [Example 393, 5-(4-((6-(methoxymethyl)-5-methyl-1,4-dioxan-2-yl)methoxy)phenyl)-2-oxo-6-(trifluoromethyl)-1,2-dihydropyridine-3-carboxamide] | 5 to 10 |
| NC(=O)c1cc(-c2ccc(OCC3OCC4CCC3O4)cc2)c(C(F)(F)F)[nH]c1=O (single isomer, unassigned) [Example 319, 5-(4-((3,8-dioxabicyclo[3.2.1]octan-2-yl)methoxy)phenyl)-2-oxo-6-(trifluoromethyl)-1,2-dihydropyridine-3-carboxamide] | 5 to 10 |
| NC(=O)c1cc(-c2ccc(OCC3CCOC3)cc2)c(C(F)(F)F)[nH]c1=O (stereo not shown) [Example 231, 2-oxo-5-(4-((tetrahydrofuran-3-yl)methoxy)phenyl)-6-(trifluoromethyl)-1,2-dihydropyridine-3-carboxamide] | 25 to 50 |
| CC(C)n1ncc2c1COCC2COc1ccc(-c2cc(C(N)=O)c(=O)[nH]c2C(F)(F)F)cc1 (single isomer, unassigned) [Example 293, 5-(4-((1-isopropyl-1,4,5,7-tetrahydropyrano[3,4-c]pyrazol-4-yl)methoxy)phenyl)-2-oxo-6-(trifluoromethyl)-1,2-dihydropyridine-3-carboxamide] | 5 to 10 |
| CC(C)(O)C1COCC(COc2ccc(-c3cc(C(N)=O)c(=O)[nH]c3C(F)(F)F)cc2)O1 (single isomer, unassigned) [Example 355, 5-(4-((6-(2-hydroxypropan-2-yl)-1,4-dioxan-2-yl)methoxy)phenyl)-2-oxo-6-(trifluoromethyl)-1,2-dihydropyridine-3-carboxamide] | 5 to 10 |
| NC(=O)c1cc(-c2ccc(OCc3cnn(CC4CC4)c3)cc2)c(C(F)(F)F)[nH]c1=O [Example 221, 5-(4-((1-(cyclopropylmethyl)-1H-pyrazol-4-yl)methoxy)phenyl)-2-oxo-6-(trifluoromethyl)-1,2-dihydropyridine-3-carboxamide] | 10 to 25 |
| NC(=O)c1cc(-c2ccc(OCC3COC(C(F)F)CO3)cc2)c(C(F)(F)F)[nH]c1=O (single isomer, unassigned) [Example 346, 5-(4-((5-(difluoromethyl)-1,4-dioxan-2-yl)methoxy)phenyl)-2-oxo-6-(trifluoromethyl)-1,2-dihydropyridine-3-carboxamide] | 5 to 10 |
| CN(C)C[C@]1(C)COC[C@@H](COc2ccc(-c3cc(C(N)=O)c(=O)[nH]c3C(F)(F)F)cc2)O1 [Example 424, 5-(4-(((2S,6R)-6-((dimethylamino)methyl)-6-methyl-1,4-dioxan-2-yl)methoxy)phenyl)-2-oxo-6-(trifluoromethyl)-1,2-dihydropyridine-3-carboxamide] | 5 to 10 |
| C[C@@]1(CN2CC(F)(F)C2)COC[C@@H](COc2ccc(-c3cc(C(N)=O)c(=O)[nH]c3C(F)(F)F)cc2)O1 [Example 422, 5-(4-(((2S,6R)-6-((3,3-difluoroazetidin-1-yl)methyl)-6-methyl-1,4-dioxan-2-yl)methoxy)phenyl)-2-oxo-6-(trifluoromethyl)-1,2-dihydropyridine-3-carboxamide] | 5 to 10 |
| NC(=O)c1cc(-c2ccc(OCc3ccnn3CC3CC3)cc2)c(C(F)(F)F)[nH]c1=O [Example 265, 5-(4-((1-(cyclopropylmethyl)-1H-pyrazol-5-yl)methoxy)phenyl)-2-oxo-6-(trifluoromethyl)-1,2-dihydropyridine-3-carboxamide] | 25 to 50 |
| CC(C)n1cc2c(n1)COCC2COc1ccc(-c2cc(C(N)=O)c(=O)[nH]c2C(F)(F)F)cc1 (single isomer, unassigned) [Example 295, 5-(4-((2-isopropyl-2,4,5,7-tetrahydropyrano[3,4-c]pyrazol-4-yl)methoxy)phenyl)-2-oxo-6-(trifluoromethyl)-1,2-dihydropyridine-3-carboxamide] | 5 to 10 |
| NC(=O)c1cc(-c2ccc(OCc3cocn3)cc2)c(C(F)(F)F)[nH]c1=O [Example 266, 5-(4-(oxazol-4-ylmethoxy)phenyl)-2-oxo-6-(trifluoromethyl)-1,2-dihydropyridine-3-carboxamide] | 25 to 50 |
| NC(=O)c1cc(-c2ccc(OCC3COCc4c(C5CC5)nnn43)cc2)c(C(F)(F)F)[nH]c1=O (stereo not shown) [Example 381, 5-(4-((3-cyclopropyl-6,7-dihydro-4H-[1,2,3]triazolo[5,1-c][1,4]oxazin-7-yl)methoxy)phenyl)-2-oxo-6-(trifluoromethyl)-1,2-dihydropyridine-3-carboxamide] | 5 to 10 |
| COCCn1cc(COc2ccc(-c3cc(C(N)=O)c(=O)[nH]c3C(F)(F)F)cc2)cn1 [Example 218, 5-(4-((1-(2-methoxyethyl)-1H-pyrazol-4-yl)methoxy)phenyl)-2-oxo-6-(trifluoromethyl)-1,2-dihydropyridine-3-carboxamide] | 25 to 50 |
| CC(F)(F)C1COCC(COc2ccc(-c3cc(C(N)=O)c(=O)[nH]c3C(F)(F)F)cc2)O1 (single isomer, unassigned) [Example 359, 5-(4-((6-(1,1-difluoroethyl)-1,4-dioxan-2-yl)methoxy)phenyl)-2-oxo-6-(trifluoromethyl)-1,2-dihydropyridine-3-carboxamide] | 5 to 10 |
| CC(C)(C)OC(=O)N1C[C@@H](F)C[C@H]1COc1ccc(-c2cc(C(N)=O)c(=O)[nH]c2C(F)(F)F)cc1 [Example 306, tert-butyl (2S,4S)-2-((4-(5-carbamoyl-6-oxo-2-(trifluoromethyl)-1,6-dihydropyridin-3-yl)phenoxy)methyl)-4-fluoropyrrolidine-1-carboxylate] | 5 to 10 |
| CCn1nccc1COc1ccc(-c2cc(C(N)=O)c(=O)[nH]c2C(F)(F)F)cc1 [Example 217, 5-(4-((1-ethyl-1H-pyrazol-5-yl)methoxy)phenyl)-2-oxo-6-(trifluoromethyl)-1,2-dihydropyridine-3-carboxamide] | 25 to 50 |

Same assay, conditions: read-out: RNP_Hubei B

| Structure (SMILES) | IC50 [µM] |
| --- | --- |
| N#Cc1cccc(COc2ccc(-c3cc(C(N)=O)c(=O)[nH]c3C(F)(F)F)cc2)c1 [Example 78, 5-(4-((3-cyanobenzyl)oxy)phenyl)-2-oxo-6-(trifluoromethyl)-1,2-dihydropyridine-3-carboxamide] | 25 to 50 |
| NC(=O)c1cc(-c2ccc(OCc3ccn4nnnc4c3)cc2)c(C(F)(F)F)[nH]c1=O [Example 90, 2-oxo-5-(4-(tetrazolo[1,5-a]pyridin-7-ylmethoxy)phenyl)-6-(trifluoromethyl)-1,2-dihydropyridine-3-carboxamide] | 25 to 50 |
| NC(=O)c1cc(-c2ccc(OCc3ccc(F)c([N+](=O)[O-])c3)cc2)c(C(F)(F)F)[nH]c1=O [Example 93, 5-(4-((4-fluoro-3-nitrobenzyl)oxy)phenyl)-2-oxo-6-(trifluoromethyl)-1,2-dihydropyridine-3-carboxamide] | 10 to 25 |
| NC(=O)c1cc(-c2ccc(C(c3cnco3)N3CCOCC3)cc2)c(C(F)(F)F)[nH]c1=O (stereo not shown) [Example 48, 5-(4-(morpholino(oxazol-5-yl)methyl)phenyl)-2-oxo-6-(trifluoromethyl)-1,2-dihydropyridine-3-carboxamide] | 25 to 50 |
| CC(C)S(=O)(=O)N1CCOC(COc2ccc(-c3cc(C(N)=O)c(=O)[nH]c3C(F)(F)F)cc2)C1 (stereo not shown) [Example 191, 5-(4-((4-(isopropylsulfonyl)morpholin-2-yl)methoxy)phenyl)-2-oxo-6-(trifluoromethyl)-1,2-dihydropyridine-3-carboxamide] | 25 to 50 |
| CS(=O)(=O)c1cccc(COc2ccc(-c3cc(C(N)=O)c(=O)[nH]c3C(F)(F)F)cc2)c1 [Example 75, 5-(4-((3-(methylsulfonyl)benzyl)oxy)phenyl)-2-oxo-6-(trifluoromethyl)-1,2-dihydropyridine-3-carboxamide] | 25 to 50 |
| NC(=O)c1cc(-c2ccc(CN3CCOCC34CC4)cc2)c(C(F)(F)F)[nH]c1=O [Example 30, 5-(4-((7-oxa-4-azaspiro[2.5]octan-4-yl)methyl)phenyl)-2-oxo-6-(trifluoromethyl)-1,2-dihydropyridine-3-carboxamide] | 5 to 10 |
| CC(c1ccc(-c2cc(C(N)=O)c(=O)[nH]c2C(F)(F)F)cc1)N1CCOCC1 (stereo not shown) [Example 33, 5-(4-(1-morpholinoethyl)phenyl)-2-oxo-6-(trifluoromethyl)-1,2-dihydropyridine-3-carboxamide] | 1 to 5 |
| NC(=O)c1cc(-c2ccc(CN3CCOCC3c3cccnc3)cc2)c(C(F)(F)F)[nH]c1=O (stereo not shown) [Example 32, 2-oxo-5-(4-((3-(pyridin-3-yl)morpholino)methyl)phenyl)-6-(trifluoromethyl)-1,2-dihydropyridine-3-carboxamide] | 25 to 50 |
| CO[C@H]1CCN(Cc2ccc(-c3cc(C(N)=O)c(=O)[nH]c3C(F)(F)F)cc2)C1 [Example 40, (S)-5-(4-((3-methoxypyrrolidin-1-yl)methyl)phenyl)-2-oxo-6-(trifluoromethyl)-1,2-dihydropyridine-3-carboxamide] | 25 to 50 |
| COC1CCOC(COc2ccc(-c3cc(C(N)=O)c(=O)[nH]c3C(F)(F)F)cc2)C1 (single isomer, unassigned) [Example 203, 5-(4-((4-methoxytetrahydro-2H-pyran-2-yl)methoxy)phenyl)-2-oxo-6-(trifluoromethyl)-1,2-dihydropyridine-3-carboxamide] | 25 to 50 |
